pIC50: −log10 of the molar value.

By pIC50 is commonly meant −log10 of the IC50, conventionally taken in molar units.

For one assay, the target named is T1, PD-1/PD-L1 protein/protein interaction (Homo sapiens, UniProt Q9NZQ7).
T1 construct: Recombinant human PD-L1 protein (19-238) with a His-tag at the C-terminus; purchased AcroBiosystems PD1-H5229 (PD-L1); PD1-H5257 (PD-1)
T1 sequence (Q9NZQ7 19-238): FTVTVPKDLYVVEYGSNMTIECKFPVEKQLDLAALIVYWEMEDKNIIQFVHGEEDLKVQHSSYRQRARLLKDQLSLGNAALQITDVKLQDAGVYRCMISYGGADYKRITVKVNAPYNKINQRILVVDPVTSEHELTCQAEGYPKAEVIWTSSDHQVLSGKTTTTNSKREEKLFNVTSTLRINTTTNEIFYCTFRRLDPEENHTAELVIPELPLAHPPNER
The assay can be described thus: PD-1/PD-L1 homogenous time-resolved fluorescence (HTRF) binding assay.
Settings: not given
The method, then: Resolved Fluorescence (HTRF) Binding Assay
The assays were conducted in a standard black 384-well polystyrene plate with a final volume of […]. Inhibitors were first serially diluted in DMSO and then added to the plate wells before the addition of other reaction components. The final concentration of DMSO in the assay was 1%. The assays were carried out at 25° C. in the PBS buffer (pH 7.4) with 0.05% Tween-20 and 0.1% BSA. […] Plates were centrifuged and proteins were preincubated with inhibitors for 40 min. The incubation was followed by the addition of 10 μL of HTRF detection buffer supplemented with Europium cryptate-labeled anti-human IgG (PerkinElmer-AD0212) specific for Fc and anti-His antibody conjugated to SureLight®—Allophycocyanin (APC, PerkinElmer-AD0059H). After centrifugation, the plate was incubated at 25° C. for 60 min. […] Final concentrations in the assay were […] PD1, 10 nM PD-L1, 1 nM europium anti-human IgG and 20 nM anti-His-Allophycocyanin. IC50 determination was performed by fitting the curve of percent control activity versus the log of the inhibitor concentration using the GraphPad Prism 5.0 software.
In turn, `Cc1c(Nc2nccc3cc(CN4CCCCC4C(=O)O)cnc23)cccc1-c1cccc(OCCCNC(N)=O)c1C` (centres unmarked) [Compound 25, 1-((8-((2,2′-dimethyl-3′-(3-ureidopropoxy)-[1,1′-biphenyl]-3-yl)amino)-1,7-naphthyridin-3-yl)methyl)piperidine-2-carboxylic acid] showed a pIC50 below 6.82.
On the same count and under the same terms, in the case of `Cc1c(Nc2nccc3cc(CN4CCCCC4C(=O)O)cnc23)cccc1-c1cccc(OCCCN2CCCC2C(=O)O)c1C` (centres unmarked) [Compound 29, 1-((8-((3′-(3-(2-carboxypyrrolidin-1-yl)propoxy)-2,2′-dimethyl-[1,1′-biphenyl]-3-yl)amino)-1,7-naphthyridin-3-yl)methyl)piperidine-2-carboxylic acid] it was 8.00 to 8.70.
In turn, `Cc1c(Nc2nccc3cc(CN4CCCCC4C(=O)O)cnc23)cccc1-c1cccc(OCCCNC2COC2)c1` (centres unmarked) [Compound 33, 1-((8-((2-methyl-3′-(3-(oxetan-3-ylamino)propoxy)-[1,1′-biphenyl]-3-yl)amino)-1,7-naphthyridin-3-yl)methyl)piperidine-2-carboxylic acid] had a negative logarithm of the IC50 (pIC50) above 8.70.
Still for that read-out and setting: in the case of `Cc1c(Nc2nccc3cc(CN4CCCCC4C(=O)O)cnc23)cccc1-c1cccc(OCCCNC(=N)N)c1C` (centres unmarked) [Compound 26, 1-((8-((3′-(3-guanidinopropoxy)-2,2′-dimethyl-[1,1′-biphenyl]-3-yl)amino)-1,7-naphthyridin-3-yl)methyl)piperidine-2-carboxylic acid] it was below 6.82; in that of `CCN(CC)CCCOc1cccc(-c2cccc(Nc3nccc4cc(CN5CCCCC5C(=O)O)cnc34)c2C)c1C` (centres unmarked) [Compound 21, 1-((8-((3′-(3-(diethylamino)propoxy)-2,2′-dimethyl-[1,1′-biphenyl]-3-yl)amino)-1,7-naphthyridin-3-yl)methyl)piperidine-2-carboxylic acid], above 8.70.
On the same count and under the same terms, with `Cc1c(Nc2nccc3cc(CN4CCCCC4C(=O)O)cnc23)cccc1-c1ccc(C(F)(F)F)c(OCCCN2CCOCC2)c1` (centres unmarked) [Compound 60, 1-((8-((2-methyl-3′-(3-morpholinopropoxy)-4′-(trifluoromethyl)-[1,1′-biphenyl]-3-yl)amino)-1,7-naphthyridin-3-yl)methyl)piperidine-2-carboxylic acid] the figure was below 6.82.
In turn, `Cc1c(NC(=O)CCN2CCOCC2)cccc1-c1cccc(Nc2nccc3cc(CN4CCCCC4C(=O)O)cnc23)c1C` (centres unmarked) [Compound 49, 1-((8-((2,2′-dimethyl-3′-(3-morpholinopropanamido)-[1,1′-biphenyl]-3-yl)amino)-1,7-naphthyridin-3-yl)methyl)piperidine-2-carboxylic acid] gave a pIC50 of 8.00 to 8.70.
The same measure, in the same setting: in the case of `Cc1c(Nc2nccc3cc(CN4CCCCC4C(=O)O)cnc23)cccc1-c1cccc(OCCCN2CCOCC2)c1F` (centres unmarked) [Compound 37, 1-((8-((2′-fluoro-2-methyl-3′-(3-morpholinopropoxy)-[1,1′-biphenyl]-3-yl)amino)-1,7-naphthyridin-3-yl)methyl)piperidine-2-carboxylic acid] it was 8.00 to 8.70.
Same read-out and setting: in the case of `Cc1c(Nc2nccc3cc(CN4CCCCC4C(=O)O)cnc23)cccc1-c1cccc(OCC2(CN3CCOCC3)CC2)c1C` (centres unmarked) [Compound 54, 1-((8-((2,2′-dimethyl-3′-((1-(morpholinomethyl)cyclopropyl)methoxy)-[1,1′-biphenyl]-3-yl)amino)-1,7-naphthyridin-3-yl)methyl)piperidine-2-carboxylic acid] it was 8.00 to 8.70.
Still for that read-out and setting: with `CC(=O)NCCCOc1cccc(-c2cccc(Nc3nccc4cc(CN5CCCCC5C(=O)O)cnc34)c2C)c1C` (centres unmarked) [Compound 24, 1-((8-((3′-(3-acetamidopropoxy)-2,2′-dimethyl-[1,1′-biphenyl]-3-yl)amino)-1,7-naphthyridin-3-yl)methyl)piperidine-2-carboxylic acid] the figure was below 6.82; with `CCNCCCOc1cccc(-c2cccc(Nc3nccc4cc(CN5CCCCC5C(=O)O)cnc34)c2C)c1C` (centres unmarked) [Compound 23, 1-((8-((3′-(3-(ethylamino)propoxy)-2,2′-dimethyl-[1,1′-biphenyl]-3-yl)amino)-1,7-naphthyridin-3-yl)methyl)piperidine-2-carboxylic acid], above 8.70.
Take `Cc1c(Nc2nccc3cc(CN4CCCCC4C(=O)O)cnc23)cccc1-c1ccc2ccc(OCCN3CCOCC3)cc2c1` (centres unmarked) [Compound 32, 1-((8-((2-methyl-3-(7-(2-morpholinoethoxy)naphthalen-2-yl)phenyl)amino)-1,7-naphthyridin-3-yl)methyl)piperidine-2-carboxylic acid]: the pIC50 was below 6.82.
`Cc1c(Nc2nccc3cc(CN4CCCCC4C(=O)O)cnc23)cccc1-c1cccc(OCCCN2CCN(C)CC2)c1C` (centres unmarked) [Compound 17, 1-((8-((2,2′-dimethyl-3′-(3-(4-methylpiperazin-1-yl)propoxy)-[1,1′-biphenyl]-3-yl)amino)-1,7-naphthyridin-3-yl)methyl)piperidine-2-carboxylic acid] gave a pIC50 of 8.00 to 8.70.
Still for that read-out and setting: with `Cc1ccc(-c2cccc(Nc3nccc4cc(CN5CCCCC5C(=O)O)cnc34)c2C)c(C)c1OCCCN1CCOCC1` (centres unmarked) [Compound 41, 1-((8-((2,2′,4′-trimethyl-3′-(3-morpholinopropoxy)-[1,1′-biphenyl]-3-yl)amino)-1,7-naphthyridin-3-yl)methyl)piperidine-2-carboxylic acid] the figure was below 6.82; with `Cc1c(Nc2nccc3cc(CN4CCCCC4C(=O)O)cnc23)cccc1-c1cccc(OCCCN2CCOCC2)c1` (centres unmarked) [Compound 36, 1-((8-((2-methyl-3′-(3-morpholinopropoxy)-[1,1′-biphenyl]-3-yl)amino)-1,7-naphthyridin-3-yl)methyl)piperidine-2-carboxylic acid], 8.00 to 8.70.
The same measure, in the same setting: in the case of `Cc1c(Nc2nccc3cc(CNCC(=O)O)cnc23)cccc1-c1ccc(Cl)c(OCCCN2CCOCC2)c1` [Compound 44, ((8-((4′-chloro-2-methyl-3′-(3-morpholinopropoxy)-[1,1′-biphenyl]-3-yl)amino)-1,7-naphthyridin-3-yl)methyl)glycine] it was above 8.70; in that of `Cc1c(Nc2nccc3cc(CNCC(=O)O)cnc23)cccc1-c1cncc(OCCCN2CCOCC2)c1C` [Compound 46, ((8-((2-methyl-3-(4-methyl-5-(3-morpholinopropoxy)pyridin-3-yl)phenyl)amino)-1,7-naphthyridin-3-yl)methyl)glycine], 6.82 to 8.00; in that of `Cc1c(Nc2nccc3cc(CN4CCCCC4C(=O)O)cnc23)cccc1-c1cccc2c1ccn2CCCN1CCOCC1` (centres unmarked) [Compound 34, 1-((8-((2-methyl-3-(1-(3-morpholinopropyl)-1H-indol-4-yl)phenyl)amino)-1,7-naphthyridin-3-yl)methyl)piperidine-2-carboxylic acid], below 6.82.
Turning to `Cc1c(Nc2nccc3cc(CN4CCCCC4C(=O)O)cnc23)cccc1-c1ccc(Cl)c(OCCCN2CCOCC2)c1` (centres unmarked) [Compound 43, 1-((8-((4′-chloro-2-methyl-3′-(3-morpholinopropoxy)-[1,1′-biphenyl]-3-yl)amino)-1,7-naphthyridin-3-yl)methyl)piperidine-2-carboxylic acid], the pIC50 is 8.00 to 8.70.
As to `Cc1c(Nc2nccc3cc(CN4CCCCC4C(=O)O)cnc23)cccc1-c1cccc(OC(C)CCN2CCOCC2)c1C` (centres unmarked) [Compound 55, 1-((8-((2,2′-dimethyl-3′-((4-morpholinobutan-2-yl)oxy)-[1,1′-biphenyl]-3-yl)amino)-1,7-naphthyridin-3-yl)methyl)piperidine-2-carboxylic acid], the negative-log IC50 (pIC50) is 8.00 to 8.70.
Take `Cc1c(Nc2nccc3cc(CN4CCCCC4C(=O)O)cnc23)cccc1-c1cccc(OCCCN2CCC(O)C2)c1C` (centres unmarked) [Compound 19, 1-((8-((3′-(3-(3-hydroxypyrrolidin-1-yl)propoxy)-2,2′-dimethyl-[1,1′-biphenyl]-3-yl)amino)-1,7-naphthyridin-3-yl)methyl)piperidine-2-carboxylic acid]: the pIC50 was above 8.70.

Still in this assay, the particulars now being: HTRF, recombinant human PD-1 (Fc tag) / PD-L1 (His-tag), 25° C., PBS pH 7.4; read-out: IC50.
Take `Cc1c(Nc2nccc3cc(CN4CCC(C(=O)O)C4)cnc23)cccc1-c1cccc(OCCCN2CCOCC2)c1C` (centres unmarked) [Compound 9, 1-((8-((2,2′-dimethyl-3′-(3-morpholinopropoxy)-[1,1′-biphenyl]-3-yl)amino)-1,7-naphthyridin-3-yl)methyl)pyrrolidine-3-carboxylic acid]: the pIC50 was 8.92.
For the compound `Cc1c(Nc2nccc3cc(CN4CCC[C@H]4C(=O)O)cnc23)cccc1-c1cccc(OCCCN2CCOCC2)c1C` [Compound 3, ((8-((2,2′-dimethyl-3′-(3-morpholinopropoxy)-[1,1′-biphenyl]-3-yl)amino)-1,7-naphthyridin-3-yl)methyl)proline], the negative-log IC50 (pIC50) is 8.70.
Take `Cc1c(Nc2nccc3cc(CNCCCC(=O)O)cnc23)cccc1-c1cccc(OCCCN2CCOCC2)c1C` [Compound 8, 4-(((8-((2,2′-dimethyl-3′-(3-morpholinopropoxy)-[1,1′-biphenyl]-3-yl)amino)-1,7-naphthyridin-3-yl)methyl)amino)butanoic acid]: the pIC50 was 9.05.
`Cc1c(Nc2nccc3cc(CN[C@@H](CO)C(=O)O)cnc23)cccc1-c1cccc(OCCCN2CCOCC2)c1C` [Compound 10, ((8-((2,2′-dimethyl-3′-(3-morpholinopropoxy)-[1,1′-biphenyl]-3-yl)amino)-1,7-naphthyridin-3-yl)methyl)serine]: the pIC50 was 9.30.

The same assay, now with this note: R is the group comprising morpholine.
With `Cc1c(Nc2nccc3cc(CN4CCC[C@H]4C(=O)O)cnc23)cccc1-c1cccc(OCCCN2CCOCC2)c1C` [Compound 3, ((8-((2,2′-dimethyl-3′-(3-morpholinopropoxy)-[1,1′-biphenyl]-3-yl)amino)-1,7-naphthyridin-3-yl)methyl)proline], the “biological activity (potency), as shown in Table 1” value is listed as “much more potent”.

(Values after patent publication US20210269440A1 (BETTA PHARMACEUTICALS CO., LTD, priority 2018, published 2021).)
